According to ChEMBL document CHEMBL1201862, “PubChem BioAssay data set” (2004):
Each block holds one compound with its values, some of them ahead of it. The source made the active and inactive calls.

Columns and labels:
Cytochrome P450 1A2 = molecular target: T1, Cytochrome P450 1A2 (Homo sapiens, UniProt P05177);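 further: PubChem cytochrome P450 panel assay, CYP1A2 panel member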
T1 sequence (P05177 whole entry): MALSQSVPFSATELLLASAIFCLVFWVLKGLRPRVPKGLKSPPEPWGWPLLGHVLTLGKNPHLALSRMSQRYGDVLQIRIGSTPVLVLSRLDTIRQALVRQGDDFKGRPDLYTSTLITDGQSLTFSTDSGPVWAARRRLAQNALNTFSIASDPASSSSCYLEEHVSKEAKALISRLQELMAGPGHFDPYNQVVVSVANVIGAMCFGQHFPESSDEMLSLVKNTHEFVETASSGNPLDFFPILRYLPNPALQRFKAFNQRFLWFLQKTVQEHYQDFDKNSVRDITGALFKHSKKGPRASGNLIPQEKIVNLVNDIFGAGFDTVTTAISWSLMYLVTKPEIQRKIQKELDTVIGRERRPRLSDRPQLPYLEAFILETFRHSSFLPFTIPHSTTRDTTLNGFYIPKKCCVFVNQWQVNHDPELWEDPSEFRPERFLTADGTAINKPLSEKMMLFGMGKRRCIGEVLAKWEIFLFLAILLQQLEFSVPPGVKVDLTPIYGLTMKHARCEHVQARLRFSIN

Cytochrome P450 3A4 = Cytochrome P450 3A4 (Homo sapiens, UniProt P08684);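 further: CYP3A4 tested as one member of a cytochrome P450 panel screen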
[1] = molecular target: Luciferin 4-monooxygenase (Photinus pyralis, UniProt P08659); assay: inhibition of purified Photinus pyralis luciferase – biochemical, luminescence, dose response (AID 1891)
[2] = Luminescence Cell-Based Dose Confirmation HTS to Identify Inhibitors of Platelet Dense Granule Release. [Related pubchem assays: 1663 (Primary HTS), 1678 (Summary of Project)]; type: functional
[3] = molecular target: T2, RNA-binding protein pos-1 (Caenorhabditis elegans, UniProt G5EF15); assay: disruptors of C. elegans POS-1 RNA interaction – biochemical, fluorescence polarization, dose response (AID 1964);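 further: purified POS-1 fused to maltose binding protein made in E. coli; potency of compounds blocking POS-1 binding to fluorescent RNA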
T2 sequence (G5EF15 whole entry): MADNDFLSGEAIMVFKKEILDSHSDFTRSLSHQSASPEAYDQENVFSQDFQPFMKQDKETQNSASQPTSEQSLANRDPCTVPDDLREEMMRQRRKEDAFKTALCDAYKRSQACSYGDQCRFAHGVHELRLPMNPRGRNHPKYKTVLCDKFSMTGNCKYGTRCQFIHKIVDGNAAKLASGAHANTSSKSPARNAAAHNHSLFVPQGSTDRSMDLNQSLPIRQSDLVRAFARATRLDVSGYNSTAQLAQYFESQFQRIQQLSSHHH

[4] = molecular target: T3, Zinc finger protein mex-5 (Caenorhabditis elegans, UniProt Q9XUB2); assay: potency of MEX-5 RNA-binding blockers – biochemical, C. elegans, fluorescence polarization, dose response (AID 1960)
T3 sequence (Q9XUB2 whole entry): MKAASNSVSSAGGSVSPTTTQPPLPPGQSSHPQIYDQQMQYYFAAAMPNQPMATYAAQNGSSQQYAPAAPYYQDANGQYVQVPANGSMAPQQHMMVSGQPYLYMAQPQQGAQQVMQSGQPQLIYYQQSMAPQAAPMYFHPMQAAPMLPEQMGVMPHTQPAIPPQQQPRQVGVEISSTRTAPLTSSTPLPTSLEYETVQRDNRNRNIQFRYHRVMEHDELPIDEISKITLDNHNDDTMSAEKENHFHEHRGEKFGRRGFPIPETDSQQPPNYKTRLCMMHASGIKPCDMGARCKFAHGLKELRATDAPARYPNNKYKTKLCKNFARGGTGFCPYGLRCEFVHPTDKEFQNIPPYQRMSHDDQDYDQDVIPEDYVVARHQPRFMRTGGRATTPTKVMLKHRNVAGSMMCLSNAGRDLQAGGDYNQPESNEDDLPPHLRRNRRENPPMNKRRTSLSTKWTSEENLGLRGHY

Cytochrome P450 2C19 = Cytochrome P450 2C19 (Homo sapiens, UniProt P33261); assay: Cytochrome panel assay with activity outcomes. Panel member name: p450-cyp2c19 Compounds with AC50 equal or less than 10 uM are considered active; type: functional; conditions: read-out: AC50
Cytochrome P450 2C9 = Cytochrome P450 2C9 (Homo sapiens, UniProt P11712)
[5] = molecular target: T4, Heat shock factor protein 1 (Mus musculus, UniProt P38532); assay: enhancement of HSF1-driven luciferase signal – cell-based, NIH3T3, luminescence, dose retest, confirmation (AID 435004); type: functional;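 further: stress induced by proteasome inhibitor MG132 added 30 min after compound; luciferase reporter driven by HSF1 response element in NIH3T3 cells; actives raise luminescence as potentiators of the MG132 stress response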
T4 sequence (P38532 whole entry): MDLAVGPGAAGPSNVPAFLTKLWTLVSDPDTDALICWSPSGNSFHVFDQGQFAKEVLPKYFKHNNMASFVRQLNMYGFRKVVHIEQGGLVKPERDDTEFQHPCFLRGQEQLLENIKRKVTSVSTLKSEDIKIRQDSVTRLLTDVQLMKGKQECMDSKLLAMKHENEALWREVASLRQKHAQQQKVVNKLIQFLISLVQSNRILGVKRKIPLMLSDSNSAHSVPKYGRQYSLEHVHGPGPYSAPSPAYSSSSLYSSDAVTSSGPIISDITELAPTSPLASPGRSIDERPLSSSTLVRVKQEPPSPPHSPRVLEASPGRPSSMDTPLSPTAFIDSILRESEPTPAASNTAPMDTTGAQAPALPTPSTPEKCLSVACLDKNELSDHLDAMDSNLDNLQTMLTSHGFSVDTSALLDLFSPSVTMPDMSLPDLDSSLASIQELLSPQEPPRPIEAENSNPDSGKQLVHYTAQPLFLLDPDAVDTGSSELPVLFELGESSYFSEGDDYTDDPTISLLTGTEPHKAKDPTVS

[6] = molecular target: T5, Corticotropin-releasing factor receptor 2/Corticotropin-releasing factor-binding protein (Homo sapiens, UniProt P24387+Q13324); assay: activators of CRF receptor 2 with binding protein – uHTS hits, confirmation (AID 602473); type: functional; conditions: read-out: EC50_Mean
T5 sequence (Q13324 whole entry): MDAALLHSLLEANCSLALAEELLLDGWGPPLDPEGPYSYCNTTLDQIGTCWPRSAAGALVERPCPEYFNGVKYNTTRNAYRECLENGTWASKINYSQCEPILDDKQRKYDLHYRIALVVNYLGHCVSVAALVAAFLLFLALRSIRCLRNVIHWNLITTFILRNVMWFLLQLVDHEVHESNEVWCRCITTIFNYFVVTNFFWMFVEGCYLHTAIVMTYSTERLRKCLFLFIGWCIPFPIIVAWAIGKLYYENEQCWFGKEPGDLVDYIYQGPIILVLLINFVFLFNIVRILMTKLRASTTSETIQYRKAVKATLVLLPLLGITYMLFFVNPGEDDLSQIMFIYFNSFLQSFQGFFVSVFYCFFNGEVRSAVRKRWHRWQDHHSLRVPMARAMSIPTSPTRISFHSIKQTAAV
T5 sequence (P24387 whole entry): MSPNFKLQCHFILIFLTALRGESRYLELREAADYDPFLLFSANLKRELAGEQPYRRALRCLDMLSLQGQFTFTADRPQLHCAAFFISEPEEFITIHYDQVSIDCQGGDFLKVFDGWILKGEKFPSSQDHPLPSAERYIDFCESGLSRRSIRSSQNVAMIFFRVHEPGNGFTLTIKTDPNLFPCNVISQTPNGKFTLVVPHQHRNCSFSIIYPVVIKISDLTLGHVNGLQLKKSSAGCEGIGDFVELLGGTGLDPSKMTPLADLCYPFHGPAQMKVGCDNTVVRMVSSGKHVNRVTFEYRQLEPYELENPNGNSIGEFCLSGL

Large T antigen = Large T antigen (Simian virus 40, UniProt P03070); type: functional, Betapolyomavirus macacae;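 further: Confirmatory-stage PubChem screen for compounds that inhibit SV40 T antigen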
[7] = reduction of Shn3 3'UTR-driven luciferase in osteoblasts – cell-based, Clone20 osteoblasts, firefly luciferase, cherry-picked, dose response (AID 624132); type: functional;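 further: firefly luciferase luminescence from reporter carrying the Shn3 3'UTR in osteoblasts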
[8] = loss of viability in HepG2 cells – cell-based, CellTiter-Glo, cherry-picked, cytotoxicity control for Shn3 inhibitor project, dose response (AID 624134); type: functional
[9] = non-specific 3'UTR reporter inhibition in Clone20-Shn3RL – cell-based, Renilla luciferase, cherry-picked, counter-screen for Shn3 inhibitor project, dose response (AID 624133); type: functional

Chain of Luciferin 4-monooxygenase (P08659 whole entry): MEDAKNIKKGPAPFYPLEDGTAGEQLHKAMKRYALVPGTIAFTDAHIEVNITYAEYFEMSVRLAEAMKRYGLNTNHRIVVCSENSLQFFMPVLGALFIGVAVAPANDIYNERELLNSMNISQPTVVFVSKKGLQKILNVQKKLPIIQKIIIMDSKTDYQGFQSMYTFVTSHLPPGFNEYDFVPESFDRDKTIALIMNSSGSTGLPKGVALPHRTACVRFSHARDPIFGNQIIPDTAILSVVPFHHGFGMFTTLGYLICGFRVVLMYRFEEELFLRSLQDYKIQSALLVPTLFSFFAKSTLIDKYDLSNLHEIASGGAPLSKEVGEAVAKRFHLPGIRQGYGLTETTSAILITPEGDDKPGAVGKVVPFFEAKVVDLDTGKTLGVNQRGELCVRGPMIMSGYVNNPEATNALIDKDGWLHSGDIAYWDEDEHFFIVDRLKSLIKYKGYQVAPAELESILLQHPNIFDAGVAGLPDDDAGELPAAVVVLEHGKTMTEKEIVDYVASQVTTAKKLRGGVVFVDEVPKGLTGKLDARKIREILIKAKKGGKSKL
Chain of Cytochrome P450 3A4 (P08684 whole entry): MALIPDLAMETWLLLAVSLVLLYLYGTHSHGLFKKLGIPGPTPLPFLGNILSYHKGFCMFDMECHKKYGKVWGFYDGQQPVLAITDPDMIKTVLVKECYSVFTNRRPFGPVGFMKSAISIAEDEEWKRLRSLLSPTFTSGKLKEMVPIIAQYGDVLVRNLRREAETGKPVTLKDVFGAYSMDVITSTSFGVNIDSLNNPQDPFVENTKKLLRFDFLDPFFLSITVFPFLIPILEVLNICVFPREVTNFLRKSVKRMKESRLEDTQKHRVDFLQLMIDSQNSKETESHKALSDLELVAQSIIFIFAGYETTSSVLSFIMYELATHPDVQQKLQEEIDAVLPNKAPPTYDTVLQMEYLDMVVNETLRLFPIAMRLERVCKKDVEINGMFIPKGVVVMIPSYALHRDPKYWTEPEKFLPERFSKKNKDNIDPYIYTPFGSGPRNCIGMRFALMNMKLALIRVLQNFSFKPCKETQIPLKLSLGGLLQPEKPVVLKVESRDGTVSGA
Chain of Cytochrome P450 2C19 (P33261 whole entry): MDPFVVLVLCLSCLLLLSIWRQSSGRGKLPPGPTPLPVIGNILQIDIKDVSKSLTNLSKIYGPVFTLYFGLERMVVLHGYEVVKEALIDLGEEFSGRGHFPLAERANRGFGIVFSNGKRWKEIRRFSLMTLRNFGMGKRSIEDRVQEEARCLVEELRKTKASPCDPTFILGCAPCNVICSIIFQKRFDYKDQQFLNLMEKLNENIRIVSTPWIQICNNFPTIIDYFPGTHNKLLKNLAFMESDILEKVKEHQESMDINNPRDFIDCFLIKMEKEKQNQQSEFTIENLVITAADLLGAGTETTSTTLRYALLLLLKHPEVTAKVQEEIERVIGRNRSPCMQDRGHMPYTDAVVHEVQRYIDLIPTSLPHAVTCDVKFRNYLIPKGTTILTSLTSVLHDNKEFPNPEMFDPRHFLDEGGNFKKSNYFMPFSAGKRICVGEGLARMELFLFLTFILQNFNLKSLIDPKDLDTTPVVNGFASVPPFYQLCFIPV
Chain of Cytochrome P450 2C9 (P11712 whole entry): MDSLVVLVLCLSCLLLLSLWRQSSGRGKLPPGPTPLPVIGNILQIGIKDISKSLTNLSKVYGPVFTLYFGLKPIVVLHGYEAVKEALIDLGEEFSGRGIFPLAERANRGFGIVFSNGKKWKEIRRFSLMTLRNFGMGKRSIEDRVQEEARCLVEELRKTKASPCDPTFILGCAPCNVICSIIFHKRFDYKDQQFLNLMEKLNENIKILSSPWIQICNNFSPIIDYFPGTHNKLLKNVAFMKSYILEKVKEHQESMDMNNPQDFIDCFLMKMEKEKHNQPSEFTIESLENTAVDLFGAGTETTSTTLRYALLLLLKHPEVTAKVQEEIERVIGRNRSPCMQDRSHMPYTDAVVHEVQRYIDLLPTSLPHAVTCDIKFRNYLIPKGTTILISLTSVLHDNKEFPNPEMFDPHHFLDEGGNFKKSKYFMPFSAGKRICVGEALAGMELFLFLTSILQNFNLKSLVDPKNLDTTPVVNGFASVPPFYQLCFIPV
Chain of Large T antigen (P03070 whole entry): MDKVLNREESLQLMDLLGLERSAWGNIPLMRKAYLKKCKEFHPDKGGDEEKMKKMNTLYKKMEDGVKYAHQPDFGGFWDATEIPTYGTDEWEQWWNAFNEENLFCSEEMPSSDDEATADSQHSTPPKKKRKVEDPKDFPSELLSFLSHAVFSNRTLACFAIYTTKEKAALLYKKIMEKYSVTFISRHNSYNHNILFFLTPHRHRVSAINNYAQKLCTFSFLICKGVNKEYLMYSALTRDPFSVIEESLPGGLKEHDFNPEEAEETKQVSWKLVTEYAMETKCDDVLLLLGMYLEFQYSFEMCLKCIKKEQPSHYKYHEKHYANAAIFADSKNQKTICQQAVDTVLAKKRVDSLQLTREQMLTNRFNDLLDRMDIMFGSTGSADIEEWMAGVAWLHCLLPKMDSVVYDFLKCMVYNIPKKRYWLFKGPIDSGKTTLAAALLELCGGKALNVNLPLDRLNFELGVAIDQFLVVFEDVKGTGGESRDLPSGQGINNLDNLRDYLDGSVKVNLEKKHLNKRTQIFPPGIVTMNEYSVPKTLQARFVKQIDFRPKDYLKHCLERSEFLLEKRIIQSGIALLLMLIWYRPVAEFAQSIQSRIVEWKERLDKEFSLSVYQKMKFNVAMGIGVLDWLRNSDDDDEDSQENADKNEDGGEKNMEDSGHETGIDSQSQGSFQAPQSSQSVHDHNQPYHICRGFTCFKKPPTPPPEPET

Compound: COCC(=O)N1CCC[C@@]2(CCN(C(c3ccccc3)c3ccccc3)C2)C1
- AC50 (Cytochrome P450 1A2): 12.6 µM (inconclusive)
- AC50 (Cytochrome P450 3A4): 10 µM (inconclusive)

Compound: Cc1cccc(-c2cnn(-c3ccccc3)c2N)c1
- EC50 [1]: 46 µM (active)
- EC50 [2]: 31.7 µM (active)

Compound: Cc1ccnc(NC(=O)c2ccoc2C)c1
- EC50 [1]: 17.5 µM (active)
- EC50 [2]: 3.51 µM (active)

Compound: CSc1ccc(C(=O)C2CCCN(S(=O)(=O)c3c(C)noc3C)C2)cc1 (stereo unspecified)
- EC50 [1]: > 112 µM (not active)
- EC50 [2]: > 112 µM (not active)

Compound: CC(=O)c1cccc(-n2nnnc2SCC(=O)N2CCCC2)c1
- EC50 [1]: > 112 µM (not active)
- EC50 [2]: > 112 µM (not active)

Compound: Cc1cc2c(n1-c1ccc(C(=O)O)cc1)CCCCC2
- IC50 (Large T antigen): 71.2 µM (active)

Compound: CCN1CCN(Cc2ccc(NC(=O)c3cc(NC(=O)c4cncc(-c5cccs5)c4)cc(OC)c3)cc2C(F)(F)F)CC1
- AC50 [7]: 9.68 µM (active)
- AC50 [8]: > 70 µM (inactive)
- AC50 [9]: 27.3 µM (active)

Compound: NC(Cc1ccc(Cl)cc1)c1csc(NC(=O)NCC2CCCCC2)n1 (stereo unspecified)
- AC50 [7]: 6.58 µM (active)
- AC50 [8]: 11.1 µM (active)
- AC50 [9]: 9.27 µM (active)

Compound: Cc1ccc(CN2CCN(/N=C/C(Br)=C\c3ccccc3)CC2)cc1
- EC50 [6]: > 53 µM (inactive)

Compound: Cc1ccc(/C=N/NC(=O)c2nn(C)cc2Cl)cc1
- EC50 [1]: 19.9 µM (active)
- EC50 [2]: 16.6 µM (active)

Further lines, results first:

- AC50 (Cytochrome P450 1A2): 10 µM (inconclusive)
- AC50 (Cytochrome P450 3A4): 25.1 µM (inconclusive)
Compound: CCOC(=O)CC(Nc1nc(N2CCOCC2)nc(N2CCOCC2)n1)c1ccccc1Cl (stereo unspecified)

- EC50 [3]: 7.37 µM (active)
- EC50 [4]: 30.8 µM (active)
Compound: CCOC(=O)C1CCN(C(=O)c2ccc3c(c2)NC(=O)/C(=C\c2ccc(C)cc2)S3)CC1

- AC50 (Cytochrome P450 2C19): 25.1 µM (inconclusive)
- AC50 (Cytochrome P450 1A2): 15.8 µM (inconclusive)
Compound: CCC(C)(C)n1nnnc1C(C(C)C)N(CCCO)Cc1cc2cc(C)ccc2nc1O (stereo unspecified)

- AC50 (Cytochrome P450 2C19): 3.98 µM (inconclusive)
- AC50 (Cytochrome P450 1A2): 15.8 µM (inconclusive)
- AC50 (Cytochrome P450 2C9): 20 µM (inconclusive)
Compound: CCCC[C@H](CC)CNC(=N)NC(=N)NCCCCCCNC(=N)NC(=N)NC[C@@H](CC)CCCC

- EC50 [3]: 119 µM (inconclusive)
- EC50 [4]: > 150 µM (inconclusive)
Compound: COc1ccc(CC(=O)NNC2=Nc3cccc4cccc2c34)cc1

- EC50 [3]: 59.1 µM (active)
- EC50 [4]: 36.2 µM (active)
- EC50 [5]: > 260 µM (inactive)
Compound: O=C(Nc1ccccc1O)c1cccc(S(=O)(=O)Nc2ccccc2O)c1

- EC50 [6]: 24.2 µM (active)
Compound: Cc1cccc(-n2c(C)cc(/C=C3\C(=N)N4N=C(CC(C)C)SC4=NC3=O)c2C)c1

- AC50 (Cytochrome P450 1A2): 28.2 µM (inconclusive)
Compound: CCOC(=O)CC1NC(=O)c2ccccc21 (stereo unspecified)
